Test results taken from patent publication US20250346592A1 (Celgene Corporation, priority 2022, published 2025).

Target: hPAD4 enzyme (Homo sapiens (Human), UniProt Q9UM07)
Test: RFMS2 assay (RapidFire mass spectrometry, TSTGGRQGSHH peptide substrate)
Format: biochemical
Details: 35 nM recombinant human PAD4, 500 μM TSTGGRQGSHH peptide, 30 minutes at room temperature; read-out: RFMS 2 IC50
In short: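 Recombinant human PAD4 (35 nM) with 500 μM TSTGGRQGSHH peptide in HEPES pH 7.4, 200 mM NaCl, 2 mM CaCl2, 5 mM DTT, 1.2% DMSO, 30 min at room temperature; 3-fold compound series, top 20 μM. Quenched with formic acid; substrate and citrullinated product quantified by RapidFire MRM mass spectrometry for IC50.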

Sequence of hPAD4 enzyme (Q9UM07 whole entry): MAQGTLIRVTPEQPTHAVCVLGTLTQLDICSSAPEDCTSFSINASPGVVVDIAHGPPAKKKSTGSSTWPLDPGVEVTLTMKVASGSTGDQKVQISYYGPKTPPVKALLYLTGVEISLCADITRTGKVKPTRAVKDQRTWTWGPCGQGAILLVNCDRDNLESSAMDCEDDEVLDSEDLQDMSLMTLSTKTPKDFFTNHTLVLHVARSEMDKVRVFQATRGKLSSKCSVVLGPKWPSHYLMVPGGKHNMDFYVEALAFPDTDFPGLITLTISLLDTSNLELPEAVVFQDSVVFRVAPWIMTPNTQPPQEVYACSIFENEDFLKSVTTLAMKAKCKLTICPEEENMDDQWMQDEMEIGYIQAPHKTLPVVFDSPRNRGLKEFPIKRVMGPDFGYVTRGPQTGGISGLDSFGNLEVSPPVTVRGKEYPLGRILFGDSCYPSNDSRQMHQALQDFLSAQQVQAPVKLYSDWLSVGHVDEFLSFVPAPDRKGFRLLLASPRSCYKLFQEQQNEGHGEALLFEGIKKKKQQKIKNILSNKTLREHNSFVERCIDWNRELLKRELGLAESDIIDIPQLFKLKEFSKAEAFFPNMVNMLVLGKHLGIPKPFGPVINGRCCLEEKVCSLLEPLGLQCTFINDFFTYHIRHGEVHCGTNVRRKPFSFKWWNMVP

IC50 [nM]	SMILES
501 to 1000	CNC(=O)c1ccc2cc(-c3nc4cc5c(cc4n3C)CCN(C[C@H](N)CF)C5=O)n(CC3CC3)c2n1 [Example 63, (S)-2-(6-(2-amino-3-fluoropropyl)-1-methyl-5-oxo-5,6,7,8-tetrahydro-1H-imidazo[4,5-g]isoquinolin-2-yl)-1-(cyclopropylmethyl)-N-methyl-1H-pyrrolo[2,3-b]pyridine-6-carboxamide]
501 to 1000	CN(C)C(=O)c1ccc2cc(-c3nc4cc5c(cc4n3C)CCN(C[C@H](N)CF)C5=O)n(CC3CC3)c2n1 [Example 64, (S)-2-(6-(2-amino-3-fluoropropyl)-1-methyl-5-oxo-5,6,7,8-tetrahydro-1H-imidazo[4,5-g]isoquinolin-2-yl)-1-(cyclopropylmethyl)-N,N-dimethyl-1H-pyrrolo[2,3-b]pyridine-6-carboxamide]
101 to 500	COc1c(F)ccc2cc(-c3nc4cc5c(cc4n3C)CCN(C[C@H](N)CF)C5=O)n(CC3CC3)c12 [Example 66, (S)-6-(2-amino-3-fluoropropyl)-2-(1-(cyclopropylmethyl)-6-fluoro-7-methoxy-1H-indol-2-yl)-1-methyl-1,6,7,8-tetrahydro-5H-imidazo[4,5-g]isoquinolin-5-one]
> 1000	Cn1c(-c2cc3ccc(C(=O)O)cc3n2CC2CC2)nc2cc3c(cc21)CCN(C[C@H](N)CF)C3=O [Example 67, (S)-2-(6-(2-amino-3-fluoropropyl)-1-methyl-5-oxo-5,6,7,8-tetrahydro-1H-imidazo[4,5-g]isoquinolin-2-yl)-1-(cyclopropylmethyl)-1H-indole-6-carboxylic acid]
> 1000	CN(C)c1cccc2cc(-c3nc4cc5c(cc4n3C)CCN(C[C@H](N)CF)C5=O)n(CC3CC3)c12 [Example 69, (S)-6-(2-amino-3-fluoropropyl)-2-(1-(cyclopropylmethyl)-7-(dimethylamino)-1H-indol-2-yl)-1-methyl-1,6,7,8-tetrahydro-5H-imidazo[4,5-g]isoquinolin-5-one]
> 1000	Cn1c(-c2cc3cccc(N4CCOCC4)c3n2CC2CC2)nc2cc3c(cc21)CCN(C[C@H](N)CF)C3=O [Example 70]
101 to 500	C[C@@H](N)CN1CCc2cc3c(cc2C1=O)nc(-c1cc2ccccc2n1CC1CCC1)n3C [Example 71, (R)-6-(2-aminopropyl)-2-(1-(cyclobutylmethyl)-1H-indol-2-yl)-1-methyl-1,6,7,8-tetrahydro-5H-imidazo[4,5-g]isoquinolin-5-one]
101 to 500	C[C@@H](N)CN1CCc2cc3c(cc2C1=O)nc(-c1cc2ccccc2n1CC1CCCC1)n3C [Example 72, (R)-6-(2-aminopropyl)-2-(1-(cyclopentylmethyl)-1H-indol-2-yl)-1-methyl-1,6,7,8-tetrahydro-5H-imidazo[4,5-g]isoquinolin-5-one]
> 1000	C[C@@H](N)CN1CCc2cc3c(cc2C1=O)nc(-c1cc2ccccc2n1CC12CC(C1)C2)n3C [Example 73, (R)-6-(2-aminopropyl)-2-(1-(bicyclo[1.1.1]pentan-1-ylmethyl)-1H-indol-2-yl)-1-methyl-1,6,7,8-tetrahydro-5H-imidazo[4,5-g]isoquinolin-5-one]
501 to 1000	CC(C)Cn1c(-c2nc3cc4c(cc3n2C)CCN(C[C@@H](C)N)C4=O)cc2ccccc21 [Example 74, (R)-6-(2-aminopropyl)-2-(1-isobutyl-1H-indol-2-yl)-1-methyl-1,6,7,8-tetrahydro-5H-imidazo[4,5-g]isoquinolin-5-one]
501 to 1000	COC1CC(Cn2c(-c3nc4cc5c(cc4n3C)CCN(C[C@@H](C)N)C5=O)cc3ccccc32)C1 (stereo partly drawn) [Example 75, (R)-6-(2-aminopropyl)-2-(1-((3-methoxycyclobutyl)methyl)-1H-indol-2-yl)-1-methyl-1,6,7,8-tetrahydro-5H-imidazo[4,5-g]isoquinolin-5-one]
> 1000	COCCn1c(-c2nc3cc4c(cc3n2C)CCN(C[C@@H](C)N)C4=O)cc2ccccc21 [Example 76, (R)-6-(2-aminopropyl)-2-(1-(2-methoxyethyl)-1H-indol-2-yl)-1-methyl-1,6,7,8-tetrahydro-5H-imidazo[4,5-g]isoquinolin-5-one]
101 to 500	C[C@@H](N)CN1CCc2cc3c(cc2C1=O)nc(-c1cc2ccccc2n1CCC1CC1)n3C [Example 77, (R)-6-(2-aminopropyl)-2-(1-(2-cyclopropylethyl)-1H-indol-2-yl)-1-methyl-1,6,7,8-tetrahydro-5H-imidazo[4,5-g]isoquinolin-5-one]
101 to 500	C[C@@H](N)CN1CCc2cc3c(cc2C1=O)nc(-c1cc2ccccc2n1Cc1ccccc1)n3C [Example 78, (R)-6-(2-aminopropyl)-2-(1-benzyl-1H-indol-2-yl)-1-methyl-1,6,7,8-tetrahydro-5H-imidazo[4,5-g]isoquinolin-5-one]
> 1000	CCn1c(-c2nc3cc4c(cc3n2C)CCN(C[C@@H](C)N)C4=O)cc2cccnc21 [Example 79, (R)-6-(2-aminopropyl)-2-(1-ethyl-1H-pyrrolo[2,3-b]pyridin-2-yl)-1-methyl-1,6,7,8-tetrahydro-5H-imidazo[4,5-g]isoquinolin-5-one]
101 to 500	C[C@@H](N)CN1CCc2cc3c(cc2C1=O)nc(-c1cc2ccccc2n1Cc1cccnc1)n3C [Example 80, (R)-6-(2-aminopropyl)-1-methyl-2-(1-(pyridin-3-ylmethyl)-1H-indol-2-yl)-1,6,7,8-tetrahydro-5H-imidazo[4,5-g]isoquinolin-5-one]

IC50 [nM]	SMILES
> 1000	C[C@@H](N)CN1CCc2cc3c(cc2C1=O)nc(-c1cc2ccccc2n1Cc1ccncc1)n3C [Example 81, (R)-6-(2-aminopropyl)-1-methyl-2-(1-(pyridin-4-ylmethyl)-1H-indol-2-yl)-1,6,7,8-tetrahydro-5H-imidazo[4,5-g]isoquinolin-5-one]
501 to 1000	C=CCn1c(-c2nc3cc4c(cc3n2C)CCN(C[C@@H](C)N)C4=O)cc2ccccc21 [Example 82, (R)-2-(1-allyl-1H-indol-2-yl)-6-(2-aminopropyl)-1-methyl-1,6,7,8-tetrahydro-5H-imidazo[4,5-g]isoquinolin-5-one]
101 to 500	Cc1ccc2cc(-c3nc4cc5c(cc4n3C)CCN(C[C@@H](C)N)C5=O)n(CC3CCC3)c2c1 [Example 83]
101 to 500	C[C@@H](N)CN1CCc2cc3c(cc2C1=O)nc(-c1cc2ccccc2n1Cc1ccccn1)n3C [Example 84, (R)-6-(2-aminopropyl)-1-methyl-2-(1-(pyridin-2-ylmethyl)-1H-indol-2-yl)-1,6,7,8-tetrahydro-5H-imidazo[4,5-g]isoquinolin-5-one]
> 1000	C[C@@H](O)CN1CCc2cc3c(cc2C1=O)nc(-c1cc2ccccc2n1CC1CC1)n3C [Example 85, (R)-2-(1-(cyclopropylmethyl)-1H-indol-2-yl)-6-(2-hydroxypropyl)-1-methyl-1,6,7,8-tetrahydro-5H-imidazo[4,5-g]isoquinolin-5-one]
501 to 1000	COCCn1c(-c2nc3cc4c(cc3n2C)CCN(C[C@@H](C)N)C4=O)cc2cccc(C)c21 [Example 87, (R)-6-(2-aminopropyl)-2-(1-(2-methoxyethyl)-7-methyl-1H-indol-2-yl)-1-methyl-1,6,7,8-tetrahydro-5H-imidazo[4,5-g]isoquinolin-5-one]
101 to 500	COCCn1c(-c2nc3cc4c(cc3n2C)CCN(C[C@@H](C)N)C4=O)cc2cccc(OC)c21 [Example 88, (R)-6-(2-aminopropyl)-2-(7-methoxy-1-(2-methoxyethyl)-1H-indol-2-yl)-1-methyl-1,6,7,8-tetrahydro-5H-imidazo[4,5-g]isoquinolin-5-one]
101 to 500	Cc1cccc2cc(-c3nc4cc5c(cc4n3C)CCN(C[C@@H](C)N)C5=O)n(CC3CCC3)c12 [Example 89, (R)-6-(2-aminopropyl)-2-(1-(cyclobutylmethyl)-7-methyl-1H-indol-2-yl)-1-methyl-1,6,7,8-tetrahydro-5H-imidazo[4,5-g]isoquinolin-5-one]
101 to 500	CCn1c(-c2nc3cc4c(cc3n2C)CCN(C[C@@H](C)N)C4=O)cc2cccc(OC)c21 [Example 90, (R)-6-(2-aminopropyl)-2-(1-ethyl-7-methoxy-1H-indol-2-yl)-1-methyl-1,6,7,8-tetrahydro-5H-imidazo[4,5-g]isoquinolin-5-one]
101 to 500	COc1cccc2cc(-c3nc4cc5c(cc4n3C)CCN(C[C@@H](C)N)C5=O)n(CCOC3CC3)c12 [Example 91]
> 1000	C[C@@H](N)CN1CCc2cc3c(cc2C1=O)nc(-c1cc2ccccc2n1CC(C)(C)O)n3C [Example 92, (R)-6-(2-aminopropyl)-2-(1-(2-hydroxy-2-methylpropyl)-1H-indol-2-yl)-1-methyl-1,6,7,8-tetrahydro-5H-imidazo[4,5-g]isoquinolin-5-one]
101 to 500	Cn1c(-c2cc3ccccc3n2Cc2ccno2)nc2cc3c(cc21)CCN(C[C@H](N)CF)C3=O [Example 93, (S)-6-(2-amino-3-fluoropropyl)-2-(1-(isoxazol-5-ylmethyl)-1H-indol-2-yl)-1-methyl-1,6,7,8-tetrahydro-5H-imidazo[4,5-g]isoquinolin-5-one]
501 to 1000	COCCn1c(-c2nc3cc4c(cc3n2C)CCN(C[C@H](N)CF)C4=O)cc2ccccc21 [Example 94, (S)-6-(2-amino-3-fluoropropyl)-2-(1-(2-methoxyethyl)-1H-indol-2-yl)-1-methyl-1,6,7,8-tetrahydro-5H-imidazo[4,5-g]isoquinolin-5-one]
501 to 1000	Cn1cc(Cn2c(-c3nc4cc5c(cc4n3C)CCN(C[C@H](N)CF)C5=O)cc3ccccc32)cn1 [Example 95, (S)-6-(2-amino-3-fluoropropyl)-1-methyl-2-(1-((1-methyl-1H-pyrazol-4-yl)methyl)-1H-indol-2-yl)-1,6,7,8-tetrahydro-5H-imidazo[4,5-g]isoquinolin-5-one]
> 1000	Cn1nccc1Cn1c(-c2nc3cc4c(cc3n2C)CCN(C[C@H](N)CF)C4=O)cc2ccccc21 [Example 96, (S)-6-(2-amino-3-fluoropropyl)-1-methyl-2-(1-((1-methyl-1H-pyrazol-5-yl)methyl)-1H-indol-2-yl)-1,6,7,8-tetrahydro-5H-imidazo[4,5-g]isoquinolin-5-one]
